Data as given in US20250288573A1 (H. LEE MOFFITT CANCER CENTER AND RESEARCH INSTITUTE, INC., priority 2018, published 2025).
Entries after “also recorded” stand apart in the source; their conditions may differ. Read-outs that look alike come from different tables or passages of the source. Blank lines part the entries; values can stand above or below the compound they belong to.

Columns and labels:
CRBN = target: T1, CRBN (Homo sapiens, UniProt Q96SW2); experiment: Western blot for expression of CRBN relative to vinculin in human T cells (CRBN degradation); type: cell-based; details: for remaining activity at 10 µM / remaining activity at 0.01 µM: read-out: Relative Density of CRBN (% of DMSO); for remaining activity at 0.01 µM: 24 h, 10nM
T1 construct: endogenous in cells; host or cells: primary human T cells / CD8+ T cells from peripheral blood
From the text: Bortez=bortezomib; MG132=proteasome inhibitor; MLN4924=NEDD8 inhibitor.
This assay is a standard Western blot assay for expression of CRBN relative to vinculin.
[…] 0.1 percent DMSO was used as a vehicle control.

Ikaros = target: T2, Ikaros (Homo sapiens, UniProt Q13422); experiment: Ikaros degradation in isolated human CD8+ T cells; type: cell-based; details: increasing doses
T2 construct: This molecule has a DC50 for Ikaros at 10 μM and for CRBN at <1 μM; endogenous in cells; host or cells: isolated human CD8+ T cells
Protocol: Isolated human CD8+ T cells were treated with increasing doses of EC1-168. This molecule has a DC50 for Ikaros at 10 μM and for CRBN at <1 μM. Unique functional properties may be afforded to the CDM compounds via distinct protein recruitment.
Isolated human CD8+ T cells were treated with increasing doses of EC2-134. This molecule has a DC50 for Ikaros at 10 nM and for CRBN at 100 μM. Unique functional properties may be afforded to the CDM compounds via distinct protein recruitment.

cereblon = target: T3, cereblon (Mus musculus, UniProt Q8C7D2); experiment: Western blot of cereblon in splenic T cells / splenocytes of mice treated orally with a single dose; type: in vivo; details: for cereblon levels in purified splenic T cells: single oral dose of 75 mg/kg
T3 construct: from tissue; host or cells: spleen: purified splenic T cells and total splenocytes of treated mice
T3 sequence (Q8C7D2 1-445): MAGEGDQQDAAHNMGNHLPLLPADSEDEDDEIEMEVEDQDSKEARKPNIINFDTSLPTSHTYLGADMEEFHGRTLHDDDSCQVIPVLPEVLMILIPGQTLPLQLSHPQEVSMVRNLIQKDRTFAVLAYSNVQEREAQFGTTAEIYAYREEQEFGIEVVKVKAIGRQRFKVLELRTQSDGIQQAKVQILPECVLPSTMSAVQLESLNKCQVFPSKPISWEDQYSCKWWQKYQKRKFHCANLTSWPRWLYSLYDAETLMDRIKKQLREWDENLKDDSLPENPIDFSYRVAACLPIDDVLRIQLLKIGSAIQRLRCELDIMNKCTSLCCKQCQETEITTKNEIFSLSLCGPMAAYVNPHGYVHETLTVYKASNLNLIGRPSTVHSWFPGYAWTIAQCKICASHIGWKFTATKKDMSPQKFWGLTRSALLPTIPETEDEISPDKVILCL
Protocol: FIG. 24 is a graph of results from Western blots from purified splenic T cells of mice treated orally with a single dose of 75 mg/kg SM2-145. Three mice were obtained from each time point (1, 6, 12, and 24 hrs) after treatment.
FIG. 25 contains a Western blot analysis of purified T cells from mice treated orally with a single dose of 75 mg/kg EC2-035 and EC2-134.

[1] = test system: T cells expanded from patients with melanoma; experiment: Cytokine assays (IL-2, IFN-γ) in T cells expanded from patients with melanoma; type: cell-based, human
From the text: Veh=vehicle-treated cells DMSO 0.1%

[2] = test system: CD25 (IL-2 receptor alpha); experiment: Expression of activation marker CD25 on activated human T cells; type: cell-based; details: 10 nM
From the text: FIG. 23 is a graph showing human T cells activated with a series of immunomodulatory drugs lead to higher levels of expression of the activation marker CD25 (IL-2 receptor alpha) compared to unstimulated cells and control activated cells.

cereblon (CRBN) [3] = target: T4, cereblon (CRBN) (Mus musculus, UniProt Q8C7D2); experiment: Western blot of cereblon (CRBN) levels in mouse CD8+ T cells; type: cell-based; details: 24 hours of treatment
T4 construct: endogenous in cells; host or cells: mouse CD8+ T cells
T4 sequence (Q8C7D2 1-445): T3 sequence (Q8C7D2 1-445)

IL-2 [4] = experiment: IL-2 mRNA and protein secretion in anti-CD3 stimulated human T cells; type: cell-based; details: anti-CD3 stimulation without CD28 co-stimulation, relative to DMSO
Protocol: (§1) IL-2 mRNA (FIG. 8A) and protein secretion (FIG. 8B) were measured in cells and culture supernatant, respectively. […] Cytokine levels were determined by ELISA. […] Results are representative of three independent experiments. […] Statistical analysis was conducted ANOVA, followed by Dunnett's multiple comparison test. *=p<0.05, ***=p<0.001 FIGS. 9A-9C show the structure of cereblon is concerved across different species. […] FIG. 9C is an overlay of human and mouse cereblon (Val380 and Ile391 for mCRBN; Glu377 and Val388 for hCRBN), are demarcated as thin tubes.
Cereblon acts as the E3 ubiquitin ligase (UbL) substrate receptor component of the DNA damage binding protein 1 (DDB1), cullin-4 (CUL4A and B), and ROC1 complex ([…]). […] Blood Cancer J 5, e354, 2015). […] […]. […] Br. J. Haematol. […] Leukemia 26:1425-1429, 2012), which is the hallmark of the immunomodulatory drug class.

IL-2 [5] = experiment: IL-2 production in mouse T cells; type: cell-based; details: absence of CD28 co-stimulation
Protocol: as §1

IKZF1 = experiment: Western blot of IKZF1 (Ikaros) in T cells and multiple myeloma cells; type: cell-based
BRD4 = target: T5, BRD4 (Mus musculus, UniProt Q9ESU6); experiment: Western blot of BRD4 in activated mouse T cells; type: cell-based
T5 construct: endogenous in cells
From the text: On the right is a schematic diagram of CRBN/DDB1/CUL4A and ubiquitin degrading function. […] DMSO was used in these experiments as a vehicle control. […] CRBN is shown for human T cells and vinculin loading control of human and mouse T cells are provided. […] Results shown are representative of three independent experiments.

cereblon (CRBN) [6] = target: T6, cereblon (CRBN) (Homo sapiens, UniProt Q96SW2); experiment: Kd and % inhibition from FI; type: binding
cereblon (CRBN) [7] = target: T6, cereblon (CRBN); experiment: Kd from ITC; type: binding
Pharmacokinetic studies = details: in vivo
[8] = isolated human CD8+ T cells, increasing doses, read-out: DC50 for CRBN
[9] = single oral dose of 12.5, 25, and 75 mg/kg

T6 sequence (Q96SW2 whole entry, species assumed): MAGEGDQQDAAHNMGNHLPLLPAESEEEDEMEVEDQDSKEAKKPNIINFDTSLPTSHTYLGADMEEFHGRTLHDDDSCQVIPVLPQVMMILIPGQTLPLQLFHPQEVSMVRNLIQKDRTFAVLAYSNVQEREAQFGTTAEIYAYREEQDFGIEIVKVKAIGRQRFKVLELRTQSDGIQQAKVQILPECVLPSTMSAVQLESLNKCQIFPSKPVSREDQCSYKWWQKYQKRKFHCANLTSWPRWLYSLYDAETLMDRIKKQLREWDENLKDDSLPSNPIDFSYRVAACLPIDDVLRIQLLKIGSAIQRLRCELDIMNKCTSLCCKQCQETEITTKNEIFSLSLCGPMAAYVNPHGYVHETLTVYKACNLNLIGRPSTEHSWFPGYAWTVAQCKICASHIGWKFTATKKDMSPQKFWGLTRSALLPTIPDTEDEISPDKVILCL
T1 sequence (Q96SW2 whole entry): as the sequence (Q96SW2 whole entry, species assumed) above
T2 sequence (Q13422 whole entry): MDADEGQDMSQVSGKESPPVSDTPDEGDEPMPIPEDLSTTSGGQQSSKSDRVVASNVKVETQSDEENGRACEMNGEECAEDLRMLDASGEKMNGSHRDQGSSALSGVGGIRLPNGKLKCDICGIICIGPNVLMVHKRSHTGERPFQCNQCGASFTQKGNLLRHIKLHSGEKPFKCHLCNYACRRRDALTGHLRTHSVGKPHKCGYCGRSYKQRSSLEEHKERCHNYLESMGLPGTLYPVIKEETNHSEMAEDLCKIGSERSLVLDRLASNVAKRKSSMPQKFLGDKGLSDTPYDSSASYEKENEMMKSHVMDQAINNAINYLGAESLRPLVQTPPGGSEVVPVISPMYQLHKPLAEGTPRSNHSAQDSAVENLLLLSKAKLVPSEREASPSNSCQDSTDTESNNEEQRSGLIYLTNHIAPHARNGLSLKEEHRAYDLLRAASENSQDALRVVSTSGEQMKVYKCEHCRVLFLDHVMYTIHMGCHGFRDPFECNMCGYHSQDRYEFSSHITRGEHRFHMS

- remaining activity at 10 µM (CRBN): 13.8%
- remaining activity at 0.01 µM (CRBN; human T cells, 24 hours): 4%
- DC50 (CRBN; [8]): 100 µM
- DC50 (Ikaros): 0.01 µM
- cereblon levels in purified T cells at the lowest dose (cereblon; single oral dose, lowest dose (12.5 mg/kg), compared with Crbn-/- T cells): significantly reduced
Structure (SMILES): O=C1CCC(N2C(=O)c3cccc(NCc4ccc(CNc5cccc6c5C(=O)N(C5CCC(=O)NC5=O)C6=O)cc4)c3C2=O)C(=O)N1 (stereo not drawn) [EC2-134]
- cereblon levels in purified splenic T cells (cereblon): sustained reduction in cereblon levels at 6, 9 and 12 hours
- cereblon levels in purified T cells (cereblon; [9]): inverse dose dependent levels of cereblon
- cereblon levels in total splenocytes (cereblon; [9]): inverse dose dependent levels of cereblon

Structure (SMILES): Cc1nc2cccc(N)c2c(=O)n1C1CCC(=O)NC1=O (stereo not drawn) [CC122, avadomide, reference compound]
- T cell function (IL-2 and IFN-γ after anti-CD3 (OKT3) activation) [1]: actively increasing T cell function

Structure (SMILES): CS(=O)(=O)O.O=C1CC[C@H](N2Cc3c(OCc4ccc(CN5CCN(Cc6ccc(COc7cccc8c7CN([C@H]7CCC(=O)NC7=O)C8=O)cc6)CC5)cc4)cccc3C2=O)C(=O)N1 [EC1-168, (4-(4-(((2-((S)-2,6-dioxopiperidin-3-yl)-1-oxoisoindolin-4-yl)oxy)methyl)benzyl)-114-piperazin-1-yl)(4-(((2-((S)-2,6-dioxopiperidin-3-yl)-1-oxoisoindolin-4-yl)oxy)methyl)phenyl)methylium methyl sulfonate]
- DC50 (CRBN; [8]): < 1 µM
- DC50 (Ikaros): 10 µM
- expression of the activation marker CD25 [2]: induces more immune potentiation

- cereblon (CRBN) levels (Western blot) (cereblon (CRBN) [3]): not
Structure (SMILES): Nc1cccc2c1CN(C1CCC(=O)NC1=O)C2=O (stereo not drawn) [lenalidomide, Lenalidomide]
- IL-2 production (mRNA and protein secretion) (IL-2 [4]): significantly increased; also recorded: augments IL-2 production
- IL-2 production (IL-2 [5]): not

Structure (SMILES): Nc1cccc2c1C(=O)N(C1CCC(=O)NC1=O)C2=O (stereo not drawn) [pomolidomide]
- IKZF1 expression (IKZF1): decreased
- BRD4 expression / degradation (BRD4; mouse T cells activated with anti-CD3ε/anti-CD28): failed to reduce BRD4 expression
- effect on dBET1-induced BRD4 degradation (BRD4; mouse T cells, Pom 0.5 μM with dBET1): reversed the degradation observed through dBET1

- remaining activity at 10 µM (CRBN): 7.21%
- remaining activity at 0.01 µM (CRBN; human T cells, 24 hours): 21%
- intracellular cereblon levels (Western blot) (CRBN; human T cells, 24 hours of treatment): reduced intracellular cereblon levels
- DC50 (CRBN; human T cells, 24 hours, read-out: DC50 (concentration leading to 50% degradation of cereblon)): 0.00288 µM
- Kd (cereblon (CRBN) [6]; FI, read-out: Kd (FI) (converted)): 6.59 ± 1.57 µM
- inhibition at 200 µM (cereblon (CRBN) [6]; read-out: % inhibition @ 200 uM from *FI): 70.19 ± 0.28%
- Kd (cereblon (CRBN) [7]): 6.6 ± 0.8 µM
- cereblon (CRBN) levels (Western blot) (cereblon (CRBN) [3]): reduced cereblon (CRBN) levels
- stability in pharmacokinetic studies (Pharmacokinetic studies): Poor stability
Structure (SMILES): O=C1CCC(N2Cc3c(CCCOCCOCCCc4cccc5c4CN(C4CCC(=O)NC4=O)C5=O)cccc3C2=O)C(=O)N1 (stereo not drawn) [SM2-145, 3,3′-(((Ethane-1,2-diylbis(oxy))bis(propane-3,1-diyl))bis(1-oxoisoindoline-4,2-diyl))bis(piperidine-2,6-dione)]
- specificity for CRBN degradation over Ikaros (CRBN; human T cells, 24 hours): Specificity is shown for CRBN degradation over Ikaros
- cereblon levels in purified splenic T cells (cereblon): partial reduction in cereblon levels at 6 hours
- T cell function (IL-2 and IFN-γ after anti-CD3 (OKT3) activation) [1]: actively increasing T cell function
